Laboratory results reported in patent publication US20150212068A1, “Cholyl-L-Lysyl-Fluorescein Assay” (Novassay SA, priority 2012, published 2015).
Entries after “also recorded” stand apart in the source; their conditions may differ.

Test system: serum/plasma proteins
Assay: Effect of ANS on CLF recovery in the labelled-antibody format
Type: in vitro ADME
Settings: human serum/plasma spiked with CLF, competitive immunoassay
From the text: This was successful in shifting the mean recovery to ˜100%. However, an unacceptably wide sample-to-sample variation was still observed (˜70-180%), therefore it was concluded that a blocker approach would be required, in which a chemical agent is used to displace the analyte from the binding proteins, so that it can be recovered effectively in the assay. […] ANS was therefore evaluated in more detail in this format.
The following study was executed to assess the recovery of CLF following spiking into human serum in assays, in the presence and absence of ANS.
25 μl of standard (in buffer) was added to streptavidin coated wells, followed by 100 ul of 20 ng/ml biotin-fluorescein (one formulation containing 0.2% ANS, the other without) and 100 μl of anti-fluorescein HRP (100 ng/ml). After 30 minutes incubation (RT/static) the wells were washed and 100 μl of SureBlue Reserve TMB substrate added. After a further 10 minutes incubation, 100 μl of 1M HCl was added and the colour intensity measured at 450 nm.
3 plasma samples (Lithium heparin) were spiked with CLF at […]; these concentrations (the expected values) are noted in the relevant sample IDs.

O=S(=O)(O)c1cccc2cccc(Nc3ccccc3)c12 [ANS, 8-anilino-1-naphthalene sulfonic acid]
displacement of CLF from serum/plasma proteins by blocker: effective in displacing CLF bound to serum/plasma proteins; also recorded: able to displace CLF from serum proteins
